This experiment deals with muscarinic cholinergic receptor. The experiment is described as follows: Muscarinic cholinergic radioreceptor assay ([3H] QNB competition, serum antidepressant levels). Format: binding, rat (Sprague-Dawley).
Where [1] appears, read: Standard C, 5.0 μM amitriptyline, Table II.
Setting [2] is: Standard D, 1.0 μM amitriptyline, Table II.
Setting [3] is: Standard E, 0.2 μM amitriptyline, Table II.
Where [4] appears, read: Standard C, 50 μM imipramine, Table III.
Setting [5] is: Standard D, 10 μM imipramine, Table III.
Where [6] appears, read: Standard E, 2 μM imipramine, Table III.

SMILES strings stand for the structures. Several values for one entry are separate records, joined by “and”; a condition that tells them apart may be missing. Equal values may be shown once.

Consider `CN(C)CCC=C1c2ccccc2CCc2ccccc21` [amitriptyline], for which the CPM is, setting by setting: (Sample 1, serum, Table II) 2537 CPM and 2867 CPM; (Sample 2, serum, Table II) 7735 CPM and 7778 CPM and 7386 CPM; (Standard A, 10^-5 M amitriptyline (background), Table II) 533 CPM and 529 CPM and 479 CPM; (Standard A, 10^-5 M amitriptyline (background), imipramine curve, Table III) 533 CPM and 529 CPM and 479 CPM; under setting [1], 1914 CPM and 1790 CPM and 1679 CPM; under setting [2], 5285 CPM and 5442 CPM and 5239 CPM. The CPM is 9240 CPM and 9692 CPM under setting [3]; 11235 CPM (Standard F, 0.04 μM amitriptyline, Table II). Further, the “Logit (B/Bo)” value (Sample 1, serum, Table II) is -0.644 and -0.562; the “Logit (B/Bo)” value (Sample 2, serum, Table II) was 0.288 and 0.295 and 0.227; the “Logit (B/Bo)” value under setting [1] was -0.834 and -0.879 and -0.924; the “Logit (B/Bo)” value under setting [2] is -0.112 and -0.087 and -0.119; the “Logit (B/Bo)” value under setting [3] was 0.595 and 0.716.

Turning to `CN(C)CCCN1c2ccccc2CCc2ccccc21` [imipramine], the CPM reads like this: (Sample 1, serum, Table III) 7105 CPM and 7146 CPM and 6773 CPM; (Sample 2, serum, Table III) 9642 CPM and 8636 CPM and 8069 CPM; under setting [4], 4922 CPM and 4908 CPM and 4803 CPM; under setting [5], 8706 CPM and 8704 CPM and 8799 CPM; under setting [6], 10370 CPM and 10617 CPM and 10843 CPM. The “Logit (B/Bo)” value is 0.180 and 0.187 and 0.125 (Sample 1, serum, Table III); -0.171 and -0.173 and -0.191 under setting [4]; 0.473 and 0.493 under setting [5]; 0.957 and 1.079 and 1.224 under setting [6].
